{
  "source": "patent US6762052B1",
  "about": "“DNA sequence encoding flavin-containing monooxygenase” (priority 1993, dated 2004)",
  "molecular_target": "T1, adult human liver flavin-containing monooxygenase (form 3) (Homo sapiens, UniProt P31513, E158K)",
  "T1 sequence (P31513 1-532 E158K)": "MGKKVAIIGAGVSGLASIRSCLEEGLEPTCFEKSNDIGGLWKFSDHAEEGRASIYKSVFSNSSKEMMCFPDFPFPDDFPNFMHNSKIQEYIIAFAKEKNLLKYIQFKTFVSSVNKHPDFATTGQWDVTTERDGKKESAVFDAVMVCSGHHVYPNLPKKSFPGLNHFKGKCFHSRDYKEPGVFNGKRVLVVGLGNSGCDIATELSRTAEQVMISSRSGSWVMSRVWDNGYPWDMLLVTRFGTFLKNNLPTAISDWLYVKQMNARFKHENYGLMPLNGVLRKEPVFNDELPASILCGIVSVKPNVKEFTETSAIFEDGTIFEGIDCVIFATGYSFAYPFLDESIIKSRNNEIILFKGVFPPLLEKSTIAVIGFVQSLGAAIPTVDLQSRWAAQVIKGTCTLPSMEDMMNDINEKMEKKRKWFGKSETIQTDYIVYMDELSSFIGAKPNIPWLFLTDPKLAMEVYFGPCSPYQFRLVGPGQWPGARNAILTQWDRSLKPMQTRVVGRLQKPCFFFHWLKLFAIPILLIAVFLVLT",
  "experiment": "N- and S-oxygenation by cDNA-expressed HLFMO 3 (solubilized protein from E. coli transformed with pTrcHLFMO 3), HPLC",
  "experimental": "In all cases examined, product formation was directly determined by HPLC analysis of organic extracts.\nCompetent NM522 Escherichia coli cells were transformed with the pTrc HLFMO 3 plasmid. […] After inoculation with a fresh overnight culture of NM522 containing pTrcHLFMO 3, the culture was grown at 37° C. until Abs600 was approximately 0.5 absorbance units. Finally, IPTG (0.8 mM) was added to the culture to induce expression of protein and the culture was left to grow overnight at 37° C.\nThe bacterial pellet was resuspended in 5 volumes of 50 mM potassium phosphate buffer (pH 8.4) containing 1% Triton X-100, 0.1% L-, α-phosphatidylcholine (L-α-lecithin) from egg yolk, 500 μM PMSF, and 1 mM EDTA. The mixture was sonicated and then centrifuged to remove cellular debris. As a control, bacterial lysate extracts from IPTG-induced pTrc99A-transformed NM522 cells (i.e., pTrc99A without the HLFMO 3 cDNA insert) were prepared under the same conditions.\nHuman liver samples were obtained from the Department of Surgery (UCSF) and with a protocol from the Medical College of Wisconsin (S. Wrighton).\nA typical incubation mixture (final volume 0.25 ml) contained hepatic microsomes (0.4 mg of protein) or bacterial lysate (2.3 mg of protein), NADP^+ (0.5 mM), glucose-6-phosphate (2.0 mM), glucose-6-phosphate dehydrogenase (1 IU), DETAPAC (0.8 mM) and potassium phosphate buffer (50 mM, pH 8.4). Reactions were initiated by the addition of substrate and terminated at designated times by the addition of three volumes of cold dichloromethane, mixed thoroughly and centrifuged to separate the aqueous and organic fractions. N- and S-oxide metabolic products in the resulting organic extracts were separated and quantified by HPLC. […] Thiobenzamide and thiobenzamide S-oxide were quantified with this same, HPLC system employing a mobile phase of methanol/acetonitrile/60% perchloric acid (20:80:0.016, v/v) which gave retention volumes of 2.7 and 7.0 ml, respectively. […] The major metabolites formed in the incubations were also subjected to mass spectral analysis after extraction of isolated HPLC fractions.\nRPLC of the S-oxide diastereomers with a Chiracel OT chiral analytical column (25 cm×0.15 cm inner diameter, Daicel Chemical Co., New York, N.Y.) was accomplished with a Beckman system, Kratos UV detector (240 nm) and a Hewlett Packard Integrator. […] Quantification was accomplished by comparing integrated HPLC peak areas after taking into account the difference in the extinction coefficients at 240 nm. Likewise, the cis and trans S-oxide diasteromers of (+)- and (−)-2-methyl-1,-benzodithiole were separated with a Chiracel OT chiral analytical column.",
  "note": "Entries after “also recorded” stand apart in the source; their conditions may differ.",
  "data": [
    {"smiles": "CN(C)CCCCCN1c2ccccc2Sc2ccc(C(F)(F)F)cc21", "note": "[Compound 5]", "values": [
      {"measurement": "N-oxide formation, Expressed HFLMO", "setting": "0.1 mM substrate, mean of 5 determinations ± SD", "result": "200.0 ± 45.7 pmol/min/mg of protein"},
      {"measurement": "N-oxygenase activity in the pellet", "setting": "100,000×g pellet", "result": "0.043 nmol/min/mg of protein"},
      {"measurement": "share of N-oxygenase activity in the pellet", "setting": "100,000×g pellet", "result": 16, "unit": "%"},
      {"measurement": "share of N-oxygenase activity in the supernatant fraction", "setting": "100,000×g supernatant", "result": 84, "unit": "%"},
      {"measurement": "N-oxygenase activity in the supernatant fraction", "setting": "100,000×g supernatant of solubilized recombinant HLFMO 3 protein", "result": "0.23 nmol/min/mg of protein"},
      {"measurement": "Vmax, Expressed HLFMO", "setting": "N- or S-oxide formation, for the 4-bromophenyl-1,3-oxathiolanes formation of the trans S-oxide", "result": "0.023 nmol/min/mg of protein"},
      {"measurement": "substrate activity for human liver microsomes and expressed HLFMO 3, in words", "setting": "human liver microsomes and solubilized protein from E. coli transformed with pTrcHLFMO 3", "result": "better substrates; also recorded: excellent substrates"},
      {"measurement": "Km", "setting": "read-out: Km, Expressed HLFMO, N- or S-oxide formation, for the 4-bromophenyl-1,3-oxathiolanes formation of the trans S-oxide", "result": 64.6, "unit": "µM"}
    ]}
  ]
}
